Test results published in ChEMBL document CHEMBL1201862, “PubChem BioAssay data set” (2004).
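Following 48 hours of exposure in 96-well plates, responses at five concentrations were used to interpolate endpoints linearly. Here, GI50 denotes the concentration required for 50% inhibition of growth.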 Calls of active or inactive are those of the source. Cut-off read from the data, not from the text of the source: active = GI50 up to about 1.1 µM and inactive = higher.

Experiments:
Assay in all cases: NCI tumour cell line growth inhibition, 48 h
CAKI-1 = system: CAKI-1
UACC-62 = system: UACC-62
SR = system: SR
SNB-19 = system: SNB-19
NCI/ADR-RES = system: NCI/ADR-RES
NCI-H23 = system: NCI-H23
SF-539 = system: SF-539
A549 = system: A549
MDA-MB-435 = system: MDA-MB-435
SK-OV-3 = system: SK-OV-3
HCT-15 = system: HCT-15
TK-10 = system: TK-10
EKVX = system: EKVX
SF-295 = system: SF-295
K562 = system: K562
OVCAR-8 = system: OVCAR-8
HOP-92 = system: HOP-92
Hs-578T = system: Hs-578T
RPMI-8226 = system: RPMI-8226
BT-549 = system: BT-549

Row | Structure (SMILES) | GI50 (CAKI-1) | GI50 (UACC-62) | GI50 (SR) | GI50 (SNB-19) | GI50 (NCI/ADR-RES) | GI50 (NCI-H23) | GI50 (SF-539) | GI50 (A549) | GI50 (MDA-MB-435) | GI50 (SK-OV-3) | GI50 (HCT-15) | GI50 (TK-10) | GI50 (EKVX) | GI50 (SF-295) | GI50 (K562) | GI50 (OVCAR-8) | GI50 (HOP-92) | GI50 (Hs-578T) | GI50 (RPMI-8226) | GI50 (BT-549)
1 | Cc1ccc(-n2cc(-c3ccc(Cl)cc3)c3c(NN)ncnc32)cc1 | 4.33 µM (inactive) | 2.67 µM (inactive) | 3.41 µM (inactive) | 2.93 µM (inactive) | 3.64 µM (inactive) | 3.04 µM (inactive) | 2.51 µM (inactive) | 3.26 µM (inactive) | 4.65 µM (inactive) | 5.14 µM (inactive) | 4.4 µM | 12.4 µM (inactive) | 3.3 µM (inactive) | 3.36 µM (inactive) | 2.88 µM (inactive) | 3.24 µM (inactive) | 2.97 µM (inactive) | – | – | –
2 | CCOC(=O)[C@@H]1ON2O[C@@H](OC3CCCC3(c3ccccc3)c3ccccc3)C[C@H]3OC(=O)[C@@H]1C32 (stereo partly specified) | 17.2 µM (inactive) | 19.1 µM (inactive) | 23.1 µM (inactive) | – | 34.4 µM (inactive) | 18.4 µM (inactive) | 24.9 µM (inactive) | < 0.01 µM (active) | 16.8 µM (inactive) | 86.5 µM (inactive) | 31 µM | 21.1 µM (inactive) | > 100 µM (inactive) | > 100 µM (inactive) | – | 32.8 µM (inactive) | 64.6 µM (inactive) | 31.4 µM (inactive) | 35.6 µM (inactive) | –
3 | CN1C(C(=O)Nc2ccccn2)=C(O)c2ccccc2S1(=O)=O [PIROXICAM] | > 100 µM (inactive) | > 100 µM (inactive) | > 100 µM (inactive) | > 100 µM (inactive) | > 100 µM (inactive) | > 100 µM (inactive) | > 100 µM (inactive) | > 100 µM (inactive) | > 100 µM (inactive) | > 100 µM (inactive) | > 100 µM | > 100 µM (inactive) | > 100 µM (inactive) | > 100 µM (inactive) | – | > 100 µM (inactive) | – | – | > 100 µM (inactive) | 15.3 µM (inactive)
4 | Cc1ccc(N2C(=O)C3c4[nH]c5ccc(C)cc5c4C4CCC(C(C)(C)C)CC4C3C2=O)cc1 (stereo unspecified) | 17.6 µM (inactive) | 16.2 µM (inactive) | – | 26.5 µM (inactive) | 19.5 µM (inactive) | 16.6 µM (inactive) | – | 13.6 µM (inactive) | 17.7 µM (inactive) | – | 49.8 µM | 16.5 µM (inactive) | 10.8 µM (inactive) | 15.2 µM (inactive) | 4.05 µM (inactive) | 9.62 µM (inactive) | 16.1 µM (inactive) | 10.4 µM (inactive) | 12.9 µM (inactive) | 26.9 µM (inactive)
5 | CCc1n[nH]c(=O)n1/N=C(\C)c1ccccc1 | > 100 µM (inactive) | > 100 µM (inactive) | – | > 100 µM (inactive) | > 100 µM (inactive) | > 100 µM (inactive) | > 100 µM (inactive) | > 100 µM (inactive) | > 100 µM (inactive) | – | > 100 µM | > 100 µM (inactive) | 68.5 µM (inactive) | > 100 µM (inactive) | > 100 µM (inactive) | > 100 µM (inactive) | – | > 100 µM (inactive) | > 100 µM (inactive) | > 100 µM (inactive)
6 | CC1(C)CC2=NOS3=C2C(=NO3)C1c1ccccn1 (stereo unspecified) | > 100 µM (inactive) | 44.1 µM (inactive) | 39.3 µM (inactive) | > 100 µM (inactive) | > 100 µM (inactive) | > 100 µM (inactive) | 64 µM (inactive) | 83.2 µM (inactive) | 18.6 µM (inactive) | > 100 µM (inactive) | 20 µM | > 100 µM (inactive) | > 100 µM (inactive) | > 100 µM (inactive) | 24 µM (inactive) | 39.5 µM (inactive) | > 100 µM (inactive) | > 100 µM (inactive) | > 100 µM (inactive) | –
7 | O=C(Nc1ccccc1)N1N=C(c2ccccc2)C1c1ccccc1 (stereo unspecified) | 30.2 µM (inactive) | 20.2 µM (inactive) | – | 27.7 µM (inactive) | 26.4 µM (inactive) | 23.3 µM (inactive) | 14.9 µM (inactive) | 25.3 µM (inactive) | – | 90.8 µM (inactive) | 33.8 µM | 36.1 µM (inactive) | 40.4 µM (inactive) | 24.3 µM (inactive) | – | 33.8 µM (inactive) | 23.4 µM (inactive) | 24.2 µM (inactive) | 14 µM (inactive) | 23.2 µM (inactive)
8 | CCCCCCCCCC(=O)NC(CCC(=O)N(CCNC(=O)c1nc(-c2ccccc2)oc1-c1ccccc1)Cc1ccccc1)C(=O)O (stereo unspecified) | 16.7 µM (inactive) | – | – | 17.4 µM (inactive) | 16.6 µM (inactive) | 17.9 µM (inactive) | 24 µM (inactive) | 17.4 µM (inactive) | 18.7 µM (inactive) | 16.9 µM (inactive) | 16 µM | 22.4 µM (inactive) | 16.6 µM (inactive) | 18.1 µM (inactive) | – | 17.5 µM (inactive) | 17.6 µM (inactive) | – | 17.3 µM (inactive) | 19.3 µM (inactive)
9 | C=CCN1/C(=C2\SC(=S)N(c3ccc(C)cc3)C2=O)Sc2c1ncn(C)c2=O | > 100 µM (inactive) | > 100 µM (inactive) | 84.7 µM (inactive) | > 100 µM (inactive) | – | > 100 µM (inactive) | 90.8 µM (inactive) | > 100 µM (inactive) | – | > 100 µM (inactive) | > 100 µM | > 100 µM (inactive) | 69 µM (inactive) | 90.8 µM (inactive) | > 100 µM (inactive) | 95.1 µM (inactive) | > 100 µM (inactive) | – | > 100 µM (inactive) | –
10 | c1ccc(C[N+]23C(CC[C@H]2c2ccccc2)CC[C@H]3c2ccccc2)cc1 (stereo partly specified) | > 100 µM (inactive) | – | 21.4 µM (inactive) | 29.5 µM (inactive) | – | – | – | 36.6 µM (inactive) | 18.7 µM (inactive) | 67.9 µM (inactive) | – | 74.1 µM (inactive) | 24 µM (inactive) | 35.3 µM (inactive) | 9.38 µM (inactive) | 30.2 µM (inactive) | 13.2 µM (inactive) | 49.5 µM (inactive) | 2.94 µM (inactive) | –
11 | CCOC(=O)Cc1nc(/C(C#N)=C/c2ccco2)[nH]c(=O)c1C#N | > 100 µM (inactive) | 35.4 µM (inactive) | 97.1 µM (inactive) | > 100 µM (inactive) | – | > 100 µM (inactive) | > 100 µM (inactive) | > 100 µM (inactive) | – | > 100 µM (inactive) | > 100 µM | > 100 µM (inactive) | > 100 µM (inactive) | 43.9 µM (inactive) | > 100 µM (inactive) | > 100 µM (inactive) | > 100 µM (inactive) | – | > 100 µM (inactive) | –
12 | Cc1ccc([S+]([O-])/C=C(\NC(=O)OCc2ccccc2)C(F)(F)F)cc1 (stereo unspecified) | 42 µM (inactive) | 35.2 µM (inactive) | 30.4 µM (inactive) | 29.3 µM (inactive) | 33.1 µM (inactive) | 33.4 µM (inactive) | 26.7 µM (inactive) | 41 µM (inactive) | 22.4 µM (inactive) | > 100 µM (inactive) | 33.4 µM | 80.2 µM (inactive) | 46.6 µM (inactive) | 39.8 µM (inactive) | 28.1 µM (inactive) | 36.9 µM (inactive) | 55.8 µM (inactive) | – | – | > 100 µM (inactive)
13 | CC(C)[Si](OC12CCC(CC1O)CC2CO)(C(C)C)C(C)C (stereo unspecified) | 18.7 µM (inactive) | 14.9 µM (inactive) | 7.55 µM (inactive) | 15.3 µM (inactive) | 15 µM (inactive) | 12.8 µM (inactive) | 23.4 µM (inactive) | 10.4 µM (inactive) | 16.1 µM (inactive) | 14.4 µM (inactive) | 14.1 µM | 14.4 µM (inactive) | – | 12.2 µM (inactive) | 14.7 µM (inactive) | 16.2 µM (inactive) | 12.1 µM (inactive) | – | 10.2 µM (inactive) | –
14 | CCOC(=O)C1=C(C)N(c2ccc(C)cc2)C2(O)C=CC(O)=C3C(=O)c4ccccc4C(=O)C312 (stereo unspecified) | 32.2 µM (inactive) | 33.1 µM (inactive) | 0.635 µM (active) | 24.4 µM (inactive) | 8.24 µM (inactive) | 38.4 µM (inactive) | 22.2 µM (inactive) | 37.8 µM (inactive) | 36.2 µM (inactive) | 35.7 µM (inactive) | 22.8 µM | 44 µM (inactive) | 39.3 µM (inactive) | 68.1 µM (inactive) | – | 21.6 µM (inactive) | 19.3 µM (inactive) | – | 11.1 µM (inactive) | 19.2 µM (inactive)
15 | CC1=CCC[C@@](C)(O)[C@@H]2C[C@H]3C(CSc4ccccc4)C(=O)O[C@H]3[C@@H](O2)[C@H](C)CCC1 (stereo partly specified) | 25.1 µM (inactive) | 14.8 µM (inactive) | 6.35 µM (inactive) | 13.2 µM (inactive) | – | 16.8 µM (inactive) | 16.4 µM (inactive) | 10.5 µM (inactive) | 20.3 µM (inactive) | 21.5 µM (inactive) | 19 µM | 17.3 µM (inactive) | 18.6 µM (inactive) | 12 µM (inactive) | 9.08 µM (inactive) | 13.7 µM (inactive) | 26.9 µM (inactive) | 18.4 µM (inactive) | 7.43 µM (inactive) | 22.7 µM (inactive)
16 | CCN(CCCl)CCCNc1c2ccccc2nc2ccc(OC)cc12 | 0.0959 µM (active) | 0.118 µM (active) | 0.0158 µM (active) | 1.05 µM (active) | – | 0.12 µM (active) | 0.142 µM (active) | 0.232 µM (active) | – | 1.04 µM (active) | 0.257 µM | 1.01 µM (active) | 1.02 µM (active) | 0.115 µM (active) | 0.0861 µM (active) | 0.0857 µM (active) | 0.133 µM (active) | – | 0.0637 µM (active) | –
